Laboratory results taken from patent publication US20250326744A1, “PIPERAZINE DERIVATIVE OR SALT THEREOF, AND PHARMACEUTICAL COMPOSITION” (priority 2022, published 2025).
Structures can show the parent of a compound that is named as a salt.

Legend:
[1] = test system: mexB (PA) strain; assay: Combinational effect with antibacterial agent against Pseudomonas aeruginosa (Test Examples 2 and 4): mexB (PA) strain with LVFX, TC or AZT at 1/4 MIC, EC99; format: cell-based; settings: for EC99, combinational effect with AZT, mexB (PA) / EC99, combinational effect with LVFX, mexB (PA) / EC99, combinational effect with TC, mexB (PA): mexB (PA) strain, Test Example 4; for EC99, combinational effect with AZT, mexB (PA) / EC99, mexB (PA), AZT: combined with AZT at 1/4 MIC; for EC99, combinational effect with LVFX, mexB (PA) / EC99, mexB (PA), LVFX: combined with LVFX at 1/4 MIC; for EC99, combinational effect with TC, mexB (PA) / EC99, mexB (PA), TC: combined with TC at 1/4 MIC; for EC99, mexB (PA), AZT / EC99, mexB (PA), LVFX / EC99, mexB (PA), TC: Table 52, Test Example 2, 16 to 20 hours culture, OD595
In short: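 EC99 denotes the minimum test-compound concentration (range 0–800 μM) that suppresses ≥99% of growth, measured by OD595, when combined with ¼ MIC levofloxacin (LVFX), tetracycline or aztreonam. The efflux-pump mutant mexB (PA), expressing mainly MexAB-OprM, was inoculated at 10^4–5 CFU/well in CAMHB for 16–20 h.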

[2] = test system: S-3769 strain; assay: Combinational effect with antibacterial agent against Pseudomonas aeruginosa (Test Examples 2 and 4): S-3769 strain with AMK or GM at 1/4 MIC, EC99; format: cell-based; settings: for EC99, combinational effect with AMK, S-3769 strain / EC99, S-3769 strain, AMK: combined with AMK at 1/4 MIC; for EC99, combinational effect with AMK, S-3769 strain / EC99, combinational effect with GM, S-3769 strain: Test Example 4; for EC99, combinational effect with GM, S-3769 strain / EC99, S-3769 strain, GM: combined with GM at 1/4 MIC; for EC99, S-3769 strain, AMK / EC99, S-3769 strain, GM: Table 52, Test Example 2, 16 to 20 hours culture, OD595
In short: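 EC99, the lowest test-compound concentration inhibiting growth by ≥99% (OD595), was measured with aminoglycoside AMK or GM held at ¼ MIC. Strain S-3769, a MexY-overexpressing clinical isolate, was cultured in CAMHB at 10^4 to 5 CFU/well for 16–20 h; compound range 0–800 μM.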

SMILES	EC99, combinational effect with AZT, mexB (PA) [1]	EC99, combinational effect with LVFX, mexB (PA) [1]	EC99, combinational effect with TC, mexB (PA) [1]	EC99, combinational effect with AMK, S-3769 strain [2]	EC99, combinational effect with GM, S-3769 strain [2]	EC99, mexB (PA), AZT [1]	EC99, mexB (PA), LVFX [1]	EC99, mexB (PA), TC [1]	EC99, S-3769 strain, AMK [2]	EC99, S-3769 strain, GM [2]
CSc1ccccc1CN1CCN(C(=O)[C@H](N)C2CCN(CCc3cc(Cl)ccc3C3=CCNCC3)CC2)CC1 [Example 602, Hydrochloride of (R)-2-amino-2-(1-(5-chloro-2-(1,2,3,6-tetrahydropyridin-4-yl)phenethyl)piperidin-4-yl)-1-(4-(2-(methylthio)benzyl)piperazin-1-yl) ethan-1-one]	B (25 μM<EC99≤100 μM)	S (EC99≤12.5 μM)	S (EC99≤12.5 μM)	S (EC99≤12.5 μM)	S (EC99≤12.5 μM)	–	–	–	–	–
CCOc1cccc(F)c1CN1CCN(C(=O)[C@H](N)C2CCN(CCc3cc(C)ccc3-c3ccccc3)CC2)CC1 [Example 81, Hydrobromide of (R)-2-amino-1-(4-(2-ethoxy-6-fluorobenzyl)piperazin-1-yl)-2-(1-(2-(4-methyl-[1,1′-biphenyl]-2-yl)ethyl)piperidin-4-yl)ethan-1-one]	–	–	–	–	–	B (25 μM<EC99≤100 μM)	B (25 μM<EC99≤100 μM)	B (25 μM<EC99≤100 μM)	S (EC99≤12.5 μM)	S (EC99≤12.5 μM)
CCOc1cccc(F)c1CN1CCN(C(=O)[C@H](N)C2CCN(CCc3cc(Cl)ccc3-c3cncs3)CC2)CC1 [Example 504, Hydrobromide of (R)-2-amino-2-(1-(5-chloro-2-(thiazol-5-yl)phenethyl)piperidin-4-yl)-1-(4-(2-ethoxy-6-fluorobenzyl)piperazin-1-yl)ethan-1-one]	B (25 μM<EC99≤100 μM)	B (25 μM<EC99≤100 μM)	B (25 μM<EC99≤100 μM)	A (12.5 μM<EC99≤25 μM)	A (12.5 μM<EC99≤25 μM)	–	–	–	–	–
N[C@@H](C(=O)N1CCN(Cc2cccc3ccoc23)CC1)C1CCN(CCc2cc(Cl)ccc2-c2ccccc2)CC1 [Example 39, Hydrobromide of (R)-2-amino-1-(4-(benzofuran-7-ylmethyl)piperazin-1-yl)-2-(1-(2-(4-chloro-[1,1′-biphenyl]-2-yl)ethyl)piperidin-4-yl)ethan-1-one]	–	–	–	–	–	A (12.5 μM<EC99≤25 μM)	B (25 μM<EC99≤100 μM)	A (12.5 μM<EC99≤25 μM)	A (12.5 μM<EC99≤25 μM)	B (25 μM<EC99≤100 μM)
CCSc1cc(F)ccc1CN1CCN(C(=O)[C@H](N)C2CCN(CCc3cc(Cl)ccc3C3=CCCNC3)CC2)CC1 [Example 605, Hydrochloride of (R)-2-amino-2-(1-(5-chloro-2-(1,2,5,6-tetrahydropyridin-3-yl)phenethyl)piperidin-4-yl)-1-(4-(2-(cthylthio)-4-fluorobenzyl)piperazin-1-yl) ethan-1-one]	B (25 μM<EC99≤100 μM)	S (EC99≤12.5 μM)	S (EC99≤12.5 μM)	S (EC99≤12.5 μM)	S (EC99≤12.5 μM)	–	–	–	–	–
CCOc1cccc(F)c1CN1CCN(C(=O)[C@H](N)C2CCN(CCc3cc(Cl)ccc3-c3cccc(P(C)(C)=O)c3)CC2)CC1 [Example 58, Hydrobromide of (R)-2-amino-2-(1-(2-(4-chloro-3′-(dimethylphosphoryl)-[1,1′-biphenyl]-2-yl)ethyl)piperidin-4-yl)-1-(4-(2-ethoxy-6-fluorobenzyl)piperazin-1-yl) ethan-1-one]	–	–	–	–	–	C (100 μM<EC99)	C (100 μM<EC99)	C (100 μM<EC99)	A (12.5 μM<EC99≤25 μM)	B (25 μM<EC99≤100 μM)
CCOc1cccc(F)c1CN1CCN(C(=O)[C@H](N)C2CCN(CCc3cc(Cl)ccc3-c3ccncc3)CC2)CC1 [Example 74, Hydrobromide of (R)-2-amino-2-(1-(5-chloro-2-(pyridin-4-yl)phenethyl)piperidin-4-yl)-1-(4-(2-ethoxy-6-fluorobenzyl)piperazin-1-yl)ethan-1-one]	–	–	–	–	–	C (100 μM<EC99)	C (100 μM<EC99)	C (100 μM<EC99)	S (EC99≤12.5 μM)	A (12.5 μM<EC99≤25 μM)
COc1cccc(NC(=O)C(C)(C)C)c1CN1CCN(C(=O)[C@H](N)C2CCN(CCc3cc(Cl)ccc3-c3ccccc3)CC2)CC1 [Example 527, Hydrobromide of (R)-N-(2-((4-(2-amino-2-(1-(2-(4-chloro-[1,1-biphenyl]-2-yl)ethyl)piperidin-4-yl)acetyl)piperazin-1-yl)methyl)-3-methoxyphenyl)pivalamide]	C (100 μM<EC99)	C (100 μM<EC99)	B (25 μM<EC99≤100 μM)	S (EC99≤12.5 μM)	S (EC99≤12.5 μM)	–	–	–	–	–
CSc1ccccc1CN1CCN(C(=O)[C@H](N)C2CCN(CCc3cc(Cl)ccc3C3=CCCNC3)CC2)CC1 [Example 553, Hydrobromide of (R)-2-amino-2-(1-(5-chloro-2-(1,2,5,6-tetrahydropyridin-3-yl)phenethyl)piperidin-4-yl)-1-(4-(2-(methylthio)benzyl)piperazin-1-yl)ethan-1-one]	A (12.5 μM<EC99≤25 μM)	S (EC99≤12.5 μM)	S (EC99≤12.5 μM)	S (EC99≤12.5 μM)	S (EC99≤12.5 μM)	–	–	–	–	–
CCOc1cccc(F)c1CN1CCN(C(=O)[C@H](N)C2CCN(CCc3cc(Cl)ccc3C3=CCCNC3)CC2)CC1 [Example 88, Hydrobromide of (R)-2-amino-2-(1-(5-chloro-2-(1,2,5,6-tetrahydropyridin-3-yl)phenethyl)piperidin-4-yl)-1-(4-(2-ethoxy-6-fluorobenzyl)piperazin-1-yl) ethan-1-one]	–	–	–	–	–	C (100 μM<EC99)	C (100 μM<EC99)	B (25 μM<EC99≤100 μM)	S (EC99≤12.5 μM)	S (EC99≤12.5 μM)
CCOc1cccc(F)c1CN1CCN(C(=O)[C@H](N)C2CCN(CCc3c(F)cccc3-c3ccccc3)CC2)CC1 [Example 52, Hydrobromide of (R)-2-amino-1-(4-(2-ethoxy-6-fluorobenzyl)piperazin-1-yl)-2-(1-(2-(3-fluoro-[1,l′-biphenyl]-2-yl)ethyl)piperidin-4-yl)ethan-1-one]	–	–	–	–	–	B (25 μM<EC99≤100 μM)	B (25 μM<EC99≤100 μM)	B (25 μM<EC99≤100 μM)	A (12.5 μM<EC99≤25 μM)	S (EC99≤12.5 μM)
CSc1ccc(F)cc1CN1CCN(C(=O)[C@H](N)C2CCN(CCc3cc(Cl)ccc3-c3ccccc3)CC2)CC1 [Example 530, Hydrobromide of (R)-2-amino-2-(1-(2-(4-chloro-[1,1-biphenyl]-2-yl)ethyl)piperidin-4-yl)-1-(4-(5-fluoro-2-(methylthio)benzyl)piperazin-1-yl)ethan-1-one]	B (25 μM<EC99≤100 μM)	S (EC99≤12.5 μM)	S (EC99≤12.5 μM)	S (EC99≤12.5 μM)	A (12.5 μM<EC99≤25 μM)	–	–	–	–	–
CCOc1cccc(F)c1CN1CCN(C(=O)[C@H](N)C2CCN(CCc3ccccc3-c3cc(F)cc(F)c3)CC2)CC1 [Example 48, Hydrobromide of (R)-2-amino-2-(1-(2-(3′,5′-difluoro-[1,1′-biphenyl]-2-yl)ethyl)piperidin-4-yl)-1-(4-(2-ethoxy-6-fluorobenzyl)piperazin-1-yl)ethan-1-one]	–	–	–	–	–	B (25 μM<EC99≤100 μM)	C (100 μM<EC99)	B (25 μM<EC99≤100 μM)	B (25 μM<EC99≤100 μM)	A (12.5 μM<EC99≤25 μM)
